In ChEMBL document CHEMBL1250519, “Design, synthesis, and biological evaluation of halogenated N-(2-(4-oxo-1-phenyl-1,3,8-triazaspiro[4.5]decan-8-yl)ethyl)benzamides: discovery of an isoform-selective small molecule phospholipase D2 inhibitor” (J Med Chem, 2010):
The source made the active and inactive calls. No cut-off for these calls is given here.

Assays:
[1] = species: Homo sapiens; test: Selectivity ratio of IC50 for human PLD1 to IC50 for human GST-tagged PLD2A
[2] = target: T1, Phospholipase D1 (Homo sapiens, UniProt Q13393)
T1 sequence (Q13393 whole entry): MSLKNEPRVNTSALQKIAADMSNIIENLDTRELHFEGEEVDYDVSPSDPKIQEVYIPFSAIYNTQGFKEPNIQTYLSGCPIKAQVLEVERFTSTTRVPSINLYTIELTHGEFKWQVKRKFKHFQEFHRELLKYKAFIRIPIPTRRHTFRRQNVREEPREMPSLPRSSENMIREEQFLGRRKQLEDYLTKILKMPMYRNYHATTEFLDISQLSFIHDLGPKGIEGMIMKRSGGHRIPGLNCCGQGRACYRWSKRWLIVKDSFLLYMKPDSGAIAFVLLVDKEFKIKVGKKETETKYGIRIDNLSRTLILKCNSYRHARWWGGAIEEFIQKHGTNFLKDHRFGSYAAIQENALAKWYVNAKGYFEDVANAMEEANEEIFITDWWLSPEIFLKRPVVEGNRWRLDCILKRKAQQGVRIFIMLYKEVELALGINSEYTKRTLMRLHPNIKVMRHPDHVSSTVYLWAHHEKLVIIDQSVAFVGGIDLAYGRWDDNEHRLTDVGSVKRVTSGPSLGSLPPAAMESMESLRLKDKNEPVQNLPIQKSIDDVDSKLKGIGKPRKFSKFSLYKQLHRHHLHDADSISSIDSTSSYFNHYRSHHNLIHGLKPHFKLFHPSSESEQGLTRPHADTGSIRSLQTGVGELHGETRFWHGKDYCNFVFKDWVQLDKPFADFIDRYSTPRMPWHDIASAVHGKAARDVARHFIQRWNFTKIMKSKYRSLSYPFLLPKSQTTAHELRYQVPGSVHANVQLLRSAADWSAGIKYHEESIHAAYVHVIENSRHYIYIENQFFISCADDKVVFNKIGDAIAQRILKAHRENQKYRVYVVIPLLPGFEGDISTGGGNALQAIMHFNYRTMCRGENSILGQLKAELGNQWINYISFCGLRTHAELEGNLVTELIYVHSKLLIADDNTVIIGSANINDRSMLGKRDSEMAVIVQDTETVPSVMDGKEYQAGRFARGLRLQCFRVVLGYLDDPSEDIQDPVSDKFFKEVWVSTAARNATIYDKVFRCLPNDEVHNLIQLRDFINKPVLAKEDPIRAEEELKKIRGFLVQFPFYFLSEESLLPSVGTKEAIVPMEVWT
Description: Inhibition of PLD1 in human calu1 cells

[3] = target: Phospholipase D2 (Homo sapiens, UniProt O14939)
Sequence of Phospholipase D2 (O14939 whole entry): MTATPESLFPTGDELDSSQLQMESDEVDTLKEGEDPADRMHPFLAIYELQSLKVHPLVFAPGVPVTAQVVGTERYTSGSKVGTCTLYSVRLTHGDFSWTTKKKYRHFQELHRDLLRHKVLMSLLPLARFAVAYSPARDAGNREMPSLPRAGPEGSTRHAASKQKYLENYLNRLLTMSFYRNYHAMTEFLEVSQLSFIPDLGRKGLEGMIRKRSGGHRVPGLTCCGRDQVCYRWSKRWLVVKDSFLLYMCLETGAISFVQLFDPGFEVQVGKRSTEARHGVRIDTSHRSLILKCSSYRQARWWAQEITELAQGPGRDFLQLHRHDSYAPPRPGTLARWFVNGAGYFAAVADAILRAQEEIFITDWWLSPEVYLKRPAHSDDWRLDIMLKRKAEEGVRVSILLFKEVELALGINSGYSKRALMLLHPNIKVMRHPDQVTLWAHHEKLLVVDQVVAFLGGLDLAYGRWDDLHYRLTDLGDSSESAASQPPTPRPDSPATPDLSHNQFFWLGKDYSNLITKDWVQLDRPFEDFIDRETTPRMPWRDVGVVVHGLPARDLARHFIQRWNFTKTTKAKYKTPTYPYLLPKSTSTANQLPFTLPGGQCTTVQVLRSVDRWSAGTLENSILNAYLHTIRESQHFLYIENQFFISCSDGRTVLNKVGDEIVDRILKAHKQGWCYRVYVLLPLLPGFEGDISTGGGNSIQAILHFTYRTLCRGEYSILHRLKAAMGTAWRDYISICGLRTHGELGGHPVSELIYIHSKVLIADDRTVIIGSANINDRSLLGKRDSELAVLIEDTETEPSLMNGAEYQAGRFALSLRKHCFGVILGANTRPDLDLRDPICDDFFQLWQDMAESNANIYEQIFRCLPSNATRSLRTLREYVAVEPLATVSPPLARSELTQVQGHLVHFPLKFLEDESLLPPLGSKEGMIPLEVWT
Description: Inhibition of human GST-tagged PLD2A in human HEK293 cells

[4] = target: T2, Phospholipase D1 (Homo sapiens) (UniProt Q13393); assay type: cell-based; conditions: MDA-MB-231, 10 uM
T2 sequence (whole entry): T1 sequence (Q13393 whole entry)

Row | Structure (SMILES) | Selectivity ratio [1] | IC50 [2] | IC50 [3] | inhibition [4]
1 | O=C(NCCN1CCC2(CC1)C(=O)NCN2c1cccc(Cl)c1)c1cnc2ccccc2c1 | 5 | 870 nM | 165 nM | 
2 | O=C(NCCN1CCC2(CC1)C(=O)NCN2c1ccc(Br)cc1)c1ccc2ccccc2c1 | 17 | 5900 nM | 350 nM | 
3 | O=C(NCCN1CCC2(CC1)C(=O)NCN2c1cccc(Cl)c1)c1ccc(F)cc1 | 50 | 3470 nM | 70 nM | 
4 | O=C(NCCN1CCC2(CC1)C(=O)NCN2c1ccc(Cl)cc1)c1ccc(F)cc1 | 1 | 5590 nM | 5670 nM | 
5 | O=C(NCCN1CCC2(CC1)C(=O)NCN2c1cccc(Cl)c1)c1cc2cc(F)ccc2[nH]1 | 3.4 | 250 nM | 73 nM | 
6 | O=C(NCCN1CCC2(CC1)C(=O)NCN2c1ccc(Cl)cc1)c1cnc2ccccc2c1 | 17 | 3500 nM | 200 nM | 
7 | O=C(NCCN1CCC2(CC1)C(=O)NCN2c1cccc(F)c1)c1cnc2ccccc2c1 | 40 | 2500 nM | 63 nM | 
8 | C[C@@H](CN1CCC(n2c(=O)[nH]c3cc(Br)ccc32)CC1)NC(=O)[C@H]1C[C@@H]1c1ccccc1 |  |  |  | Active
9 | O=C(NCCN1CCC2(CC1)C(=O)NCN2c1cccc(F)c1)c1ccc(F)cc1 |  |  | 6700 nM | 
10 | C[C@@H](CN1CCC2(CC1)C(=O)NCN2c1cccc(F)c1)NC(=O)c1ccc2ccccc2c1 |  | 10 nM | 60 nM | 
11 | O=C(NCCN1CCC2(CC1)C(=O)NCN2c1cccc(Cl)c1)c1ccc2ccccc2c1 | 4 | 1200 nM | 290 nM | 
12 | O=C(NCCN1CCC2(CC1)C(=O)NCN2c1ccc(Br)cc1)c1cnc2ccccc2c1 | 8 | 2700 nM | 360 nM | 
13 | O=C(NCCN1CCC2(CC1)C(=O)NCN2c1ccc(Cl)cc1)c1ccc2ccccc2c1 | 3.5 | 2270 nM | 655 nM | 
14 | O=C(NCCN1CCC2(CC1)C(=O)NCN2c1ccc(Cl)cc1)c1cc2cc(F)ccc2[nH]1 | 7 | 335 nM | 50 nM | 
15 | O=C(NCCN1CCC2(CC1)C(=O)NCN2c1cccc(F)c1)c1cc2cc(F)ccc2[nH]1 | 8 | 210 nM | 25 nM | 
16 | O=C(NCCN1CCC2(CC1)C(=O)NCN2c1ccc(F)c(F)c1)c1ccc(F)cc1 | 9 | 5780 nM | 660 nM | 
17 | O=C(NCCN1CCC2(CC1)C(=O)NCN2c1ccc(F)cc1)c1cnc2ccccc2c1 | 50 | 2000 nM | 40 nM | 
18 | O=C(NCCN1CCC2(CC1)C(=O)NCN2c1ccc(F)cc1)c1ccc2ccccc2c1 | 21 | 1700 nM | 80 nM | 
19 | O=C(NCCN1CCC2(CC1)C(=O)NCN2c1ccc(Br)cc1)c1ccc(F)cc1 | 1 | 10000 nM | 8000 nM | 
20 | O=C(NCCN1CCC2(CC1)C(=O)NCN2c1ccc(F)cc1)c1cc2cc(F)ccc2[nH]1 | 9 | 290 nM | 30 nM | 
21 | O=C(NCCN1CCC2(CC1)C(=O)NCN2c1ccc(Br)cc1)c1cc2cc(F)ccc2[nH]1 | 27 | 2660 nM | 100 nM | 
22 | O=C(NCCN1CCC2(CC1)C(=O)NCN2c1ccc(F)c(F)c1)c1cnc2ccccc2c1 | 30 | 2060 nM | 70 nM | 
23 | O=C(NCCN1CCC2(CC1)C(=O)NCN2c1ccc(F)c(F)c1)c1cc2cc(F)ccc2[nH]1 | 4 | 390 nM | 100 nM | 
24 | O=C(NCCN1CCC2(CC1)C(=O)NCN2c1ccc(F)cc1)c1ccc(F)cc1 | 23 | 14000 nM | 610 nM | 
